# Counter-ions that a name gives are not always drawn. Like-named read-outs stand apart in the source and are kept apart here.
# Tests used:
# [1] = Hygroscopicity / hygroscopic stability; assay type: physicochemical
# [2] = for SOLUBILITY IN WATER: Aqueous solubility of ziprasidone mesylate polymorphs, ambient temperature (22-25° C.), equilibration 12-13 days
# Procedure: (§1) The relative thermodynamic stability of the three ziprasidone mesylate hydrated crystal forms was determined in a series of bridging experiments where mixtures of the crystal forms were allowed to equilibrate. For the bridging experiments, 200 mg samples were allowed to equilibrate in water (4 mL) at ambient temperature (22-25° C.). Two samples each of 90/10 (w/w) and 10/90 (w/w) mixtures of the two different identified polymorphs of ziprasidone mesylate (prism vs. dihydrate (lath), prism vs. dihydrate (needle), dihydrate (needle) vs. dihydrate (lath)) were evaluated. After equilibration (12-13 days), the solids were evaluated for polymorph changes and the supernatants were assayed by HPLC to determine solubility.
# [3] = as stated by U.S. Pat. No. 5,312,925; cited from earlier work
# physchem = conditions: water
# Procedure: as §1
# [4] = Relative thermodynamic stability of the crystal forms in water (bridging experiments); assay type: physicochemical; conditions: for thermodynamic stability in an aqueous medium (words): ambient conditions/temperature, among the four ziprasidone mesylate forms, methanesulfonate trihydrate
smiles,measurement,setting,value
"O=C1Cc2cc(CCN3CCN(c4nsc5ccccc45)CC3)c(Cl)cc2N1 [5-[2-[4-(1,2-benzisothiazol-3-yl)-1-piperazinyl]ethyl]-6-chloro-1,3-dihydro-2H-indol-2-one methanesulfonate anhydrous]",hygroscopicity when exposed to air,[1]; exposed to air (humidity),hygroscopic when exposed to air (humidity)
same,SOLUBILITY IN WATER,[2]; listed as anhydrous,1.27 mg/mL
"O=C1Cc2cc(CCN3CCN(c4nsc5ccccc45)CC3)c(Cl)cc2N1 [5-[2-[4-(1-benzisothiazol-3-yl)-1-piperazinyl]ethyl]-6-chloro-1,3-dihydro-2H-indol-2-one methanesulfonate dihydrate (lath crystals)]",SOLUBILITY IN WATER,[2]; listed as dihydrate (lath),1.11 mg/mL
"O=C1Cc2cc(CCN3CCN(c4nsc5ccccc45)CC3)c(Cl)cc2N1 [5-[2-[4-(1-benzisothiazol-3-yl)-1-piperazinyl]ethyl]-6-chloro-1,3-dihydro-2H-indol-2-one methanesulfonate dihydrate (needle crystals)]",SOLUBILITY IN WATER,[2]; listed as dihydrate (needle),1.10 mg/mL
"O=C1Cc2cc(CCN3CCN(c4nsc5ccccc45)CC3)c(Cl)cc2N1 [ziprasidone hydrochloride monohydrate, reference compound]",hygroscopic stability,[3],substantially hygroscopically stable
same,aqueous solubility,[2]; background statement,low aqueous solubility
same,solubility in water,"[2]; in water at ambient temperature, comparator salt",0.08 mg/mL
"CS(=O)(=O)O.O.O.O.O=C1Cc2cc(CCN3CCN(c4nsc5ccccc45)CC3)c(Cl)cc2N1 [ziprasidone mesylate trihydrate, 5-[2-[4-(1,2-benzisothiazol-3-yl)-1-piperazinyl]ethyl]-6-chloro-1,3-dihydro-2H-indol-2-one methanesulfonate trihydrate]",solubility,physchem,0.73 mg/mL
same,thermodynamic stability in an aqueous medium (words),[4]; listed as mesylate trihydrate,most thermodynamically stable
same,thermodynamic stability in an aqueous medium (words),[4],most thermodynamically stable form of the four ziprasidone mesylate forms
same,thermodynamic stability relative to the dihydrate forms,"[4]; bridging experiments, 200 mg in water (4 mL), 22-25° C., 12-13 days",thermodynamically favored over the dihydrate forms
same,hygroscopic stability,[1],possesses hygroscopic stability
same,aqueous solubility relative to ziprasidone hydrochloride monohydrate,[2]; compared with hydrochloride monohydrate,significantly greater aqueous solubility than the hydrochloride monohydrate
